Earlier results as cited in US6548270B1, “DNA encoding human acid-sensing ion channel BNaC4 (ASIC4)” (Ortho-McNeil Pharmaceutical, Inc., priority 2000, dated 2003).

Legend:
ASIC1A = molecular target: T1, ASIC1A (Rattus norvegicus, UniProt P55926); conditions: read-out: Amiloride sensitivity, KD; cited from earlier work
T1 sequence (P55926 1-526): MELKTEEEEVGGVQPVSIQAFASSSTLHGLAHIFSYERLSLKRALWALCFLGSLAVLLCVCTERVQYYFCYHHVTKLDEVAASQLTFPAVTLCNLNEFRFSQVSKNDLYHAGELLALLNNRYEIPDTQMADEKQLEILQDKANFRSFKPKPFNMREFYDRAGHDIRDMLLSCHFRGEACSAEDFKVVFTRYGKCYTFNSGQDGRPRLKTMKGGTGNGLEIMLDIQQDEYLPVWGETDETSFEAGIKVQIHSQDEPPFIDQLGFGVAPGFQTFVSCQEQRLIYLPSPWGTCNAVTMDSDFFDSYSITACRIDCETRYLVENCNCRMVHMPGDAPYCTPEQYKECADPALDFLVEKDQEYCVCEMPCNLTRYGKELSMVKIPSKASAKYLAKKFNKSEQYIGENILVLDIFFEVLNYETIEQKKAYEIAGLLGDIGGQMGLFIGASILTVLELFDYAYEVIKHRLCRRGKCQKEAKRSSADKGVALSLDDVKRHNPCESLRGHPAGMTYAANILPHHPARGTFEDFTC

Rat ASIC3 = molecular target: T2, Rat ASIC3 (Rattus norvegicus, UniProt O35240); conditions: cited from earlier work
T2 sequence (O35240 1-533): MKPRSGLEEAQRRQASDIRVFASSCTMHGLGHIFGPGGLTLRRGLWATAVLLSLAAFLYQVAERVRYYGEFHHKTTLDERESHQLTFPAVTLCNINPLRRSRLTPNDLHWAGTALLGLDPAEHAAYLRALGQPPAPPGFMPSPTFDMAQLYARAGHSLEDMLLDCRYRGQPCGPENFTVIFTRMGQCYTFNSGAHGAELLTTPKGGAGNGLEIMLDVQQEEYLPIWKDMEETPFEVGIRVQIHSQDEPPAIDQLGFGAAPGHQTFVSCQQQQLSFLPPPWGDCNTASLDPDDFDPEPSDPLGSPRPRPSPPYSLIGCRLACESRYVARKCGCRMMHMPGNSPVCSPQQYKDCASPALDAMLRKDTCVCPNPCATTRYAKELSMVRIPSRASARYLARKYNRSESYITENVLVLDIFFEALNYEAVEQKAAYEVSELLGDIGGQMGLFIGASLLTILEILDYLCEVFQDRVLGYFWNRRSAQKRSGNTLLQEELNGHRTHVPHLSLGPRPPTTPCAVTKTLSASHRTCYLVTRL

N=C(N)NC(=O)c1nc(Cl)c(N)nc1N [amiloride]
Kd (ASIC1A): ~10 µM
IC50 (Rat ASIC3; rat ASIC3 fast component, read-out: Amiloride sensitivity, K0.5, fast component): ~60 µM
effect of amiloride on slow component (Rat ASIC3; rat ASIC3 slow component): potentiated by amiloride (Waldmann
